Measured values: PubChem BioAssay (NCI)
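Assay format: 96-well plates, 48-hour exposure. GI50 marks 50% less growth. TGI: concentration producing complete growth inhibition.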

What was measured:
Assay in all cases: DTP human tumour cell line panel, 48 h
[1] = tested on: U251 CNS
[2] = tested on: NCI-H460 lung
[3] = tested on: MDA-MB-231 breast
[4] = tested on: UACC-257 melanoma
[5] = tested on: HOP-92 NSCLC
[6] = tested on: KM12 colon
[7] = tested on: NCI-H226 lung
[8] = tested on: K-562 leukemia
[9] = tested on: NCI-H522 lung
[10] = tested on: BT-549 breast
[11] = tested on: ACHN renal
[12] = tested on: SK-MEL-2 melanoma
[13] = tested on: MOLT-4 leukemia
[14] = tested on: NCI-H23 lung
[15] = tested on: M14 melanoma
[16] = tested on: LOX IMVI melanoma
[17] = tested on: COLO 205 colon
[18] = tested on: MCF7 breast
[19] = tested on: OVCAR-3 ovarian
[20] = tested on: HS 578T breast
[21] = tested on: UACC-62 melanoma
[22] = tested on: SW-620 colon
[23] = tested on: 786-0 renal
[24] = tested on: RXF 393 renal
[25] = tested on: HCC-2998 colon
[26] = tested on: OVCAR-5 ovarian
[27] = tested on: HT29 colon
[28] = tested on: HL-60(TB) leukemia
[29] = tested on: A498 renal
[30] = tested on: SNB-75 CNS
[31] = tested on: EKVX NSCLC
[32] = tested on: SK-MEL-28 melanoma
[33] = tested on: HCT-116 colon
[34] = tested on: MDA-MB-435
[35] = tested on: SN12C renal
[36] = tested on: SF-539 CNS
[37] = tested on: SR leukemia
[38] = tested on: T-47D breast
[39] = tested on: HOP-62 NSCLC
[40] = tested on: A549 NSCLC
[41] = tested on: OVCAR-4 ovarian
[42] = tested on: SF-268 CNS
[43] = tested on: NCI/ADR-RES ovarian
[44] = tested on: UO-31 renal
[45] = tested on: MALME-3M melanoma
[46] = tested on: SK-MEL-5 melanoma
[47] = tested on: SF-295 CNS
[48] = tested on: CAKI-1 renal
[49] = tested on: OVCAR-8 ovarian
[50] = tested on: DU-145 prostate
[51] = tested on: SK-OV-3 ovarian
[52] = tested on: IGROV1 ovarian
[53] = tested on: HCT-15 colon
[54] = tested on: SNB-19 CNS
[55] = tested on: TK-10 renal

CCN(CC)CCn1c2ccc(OC)cc2c2sc3cc(OC)ccc3c(=O)c21
GI50 [1]: 1.55 µM
TGI [1]: 3.63 µM
GI50 [2]: 1.08 µM
TGI [2]: 2.52 µM
GI50 [3]: 1.54 µM
TGI [3]: 3.31 µM
GI50 [4]: 1.92 µM
TGI [4]: 3.94 µM
GI50 [5]: 1.13 µM
TGI [5]: 2.75 µM
GI50 [6]: 2 µM
TGI [6]: 4.32 µM
GI50 [7]: 2.46 µM
TGI [7]: 7.49 µM
GI50 [8]: 0.728 µM
TGI [8]: 2.76 µM
GI50 [9]: 1.71 µM
TGI [9]: 4.22 µM
GI50 [10]: 2.24 µM
TGI [10]: 5.95 µM
GI50 [11]: 1 µM
TGI [11]: 2.77 µM
GI50 [12]: 2.1 µM
TGI [12]: 4.68 µM
GI50 [13]: 0.383 µM
TGI [13]: 1.89 µM
GI50 [14]: 1.9 µM
TGI [14]: 4.34 µM
GI50 [15]: 1.64 µM
TGI [15]: 3.08 µM
GI50 [16]: 1.3 µM
TGI [16]: 2.74 µM
GI50 [17]: 1.39 µM
TGI [17]: 3.32 µM
GI50 [18]: 1.16 µM
TGI [18]: 2.45 µM
GI50 [19]: 2.12 µM
TGI [19]: 4.54 µM
GI50 [20]: 1.96 µM
TGI [20]: 4.98 µM
GI50 [21]: 1.8 µM
TGI [21]: 3.47 µM
GI50 [22]: 0.825 µM
TGI [22]: 2.41 µM
GI50 [23]: 1.59 µM
TGI [23]: 3.23 µM
GI50 [24]: 1.4 µM
TGI [24]: 2.79 µM
GI50 [25]: 1.48 µM
TGI [25]: 3.14 µM
GI50 [26]: 1.92 µM
TGI [26]: 4.92 µM
GI50 [27]: 1.51 µM
TGI [27]: 9.12 µM
GI50 [28]: 1.77 µM
TGI [28]: 4.22 µM
GI50 [29]: 1.12 µM
TGI [29]: 2.35 µM
GI50 [30]: 1.11 µM
TGI [30]: 6.48 µM
GI50 [31]: 1.6 µM
TGI [31]: 3.36 µM
GI50 [32]: 1.7 µM
TGI [32]: 3.12 µM
GI50 [33]: 0.659 µM
TGI [33]: 2.02 µM
GI50 [34]: 1.73 µM
TGI [34]: 3.22 µM
GI50 [35]: 2.03 µM
TGI [35]: 8.75 µM
GI50 [36]: 1.66 µM
TGI [36]: 3.05 µM
GI50 [37]: 0.704 µM
TGI [37]: 3.05 µM
GI50 [38]: 2 µM
TGI [38]: 4.89 µM
GI50 [39]: 2.32 µM
TGI [39]: 8.62 µM
GI50 [40]: 1.59 µM
TGI [40]: 5.71 µM
GI50 [41]: 1.84 µM
TGI [41]: 4.88 µM
GI50 [42]: 1.87 µM
TGI [42]: 5.35 µM
GI50 [43]: 1.24 µM
TGI [43]: 3.6 µM
GI50 [44]: 1.35 µM
TGI [44]: 3.02 µM
GI50 [45]: 1.59 µM
TGI [45]: 3.18 µM
GI50 [46]: 1.74 µM
TGI [46]: 3.12 µM
GI50 [47]: 1.82 µM
TGI [47]: 3.45 µM
GI50 [48]: 1.65 µM
TGI [48]: 3.77 µM
GI50 [49]: 1.93 µM
TGI [49]: 11.3 µM
GI50 [50]: 1.67 µM
TGI [50]: 3.7 µM
GI50 [51]: 3.07 µM
TGI [51]: 10.3 µM
GI50 [52]: 1.53 µM
TGI [52]: 3.61 µM
GI50 [53]: 0.861 µM
TGI [53]: 2.66 µM
GI50 [54]: 2.43 µM
TGI [54]: 10 µM
GI50 [55]: 2.33 µM
TGI [55]: 8.15 µM
